How the values were obtained:
Type in all cases: cell-based
Caco-2 cells [1] = assay: Inhibition of TEER decrease caused by inflammatory cytokine IL-1β (Example 6)
Excerpt: (§1) The oligosaccharide containing 1-kestose used in the present Example 1 is composed of 98 wt. % 1-kestose, 1 wt. % nystose, and 1 wt. % sucrose. Namely, it is an oligosaccharide containing 1-kestose at a purity of 98 wt. %. Also, as the index for the cell-cell adhesion strength in cultured cells, transepithelial electrical resistance (TEER) was used. This measurement method utilizes a property that the stronger the epithelial cell-cell adhesion, the bigger the electrical resistance value between the upper layer and the lower layer of the cell culture medium, and this technique is also employed for a model experiment using epithelial cells and the like.
Caco-2 cells, which are the epithelial colorectal carcinoma cells, were subcultured in a 10% FES-containing DMEM medium (GIBCO), and the 48th generation of cultured cells were cryopreserved and used for the following experiments. […]
To the upper layer of a DMEM medium in which the Caco-2 cells were cultured until TEER of the Transwell reached 400 to 500 Ω·cm^2, an oligosaccharide containing 1-kestose was added at a concentration of 1 wt. %. […] TEER was measured 48 hours later and a ratio of the value thus measured to the initial measured value of TEER was calculated (1% kestose (+), IL-1β(+) group, n=3). […]

Caco-2 cells [2] = assay: Lucifer Yellow permeation from upper to lower layer after extracellular calcium deficiency (Example 5); details: Example 5, FIG. 6, 3 h; for residual concentration of Lucifer Yellow in the lower layer compared to the negative control group: 1 wt. % in calcium-containing medium, Lucifer Yellow in upper layer
Method: (§2) Caco-2 cells, which are the epithelial colorectal carcinoma cells, were subcultured in a 10% FES-containing DMEM medium (GIBCO), and the 48th generation of cultured cells were cryopreserved and used for the following experiments. The Caco-2 cells were seeded in the upper layer of a Transwell (Corning Life Sciences) and cultured in an incubator in 5% CO2 at 37° C. in the presence of a 10% FBS-containing DMEM medium. Cell culture was performed until the electrical resistance between the upper layer and the lower layer of the Transwell (TEER) reached 400 to 500 Ω·cm^2.
The Caco-2 cells that were cultured until TEER of the Transwell reached 400 to 500 Ω·cm^2 were cultured for two hours after exchanging the 10% FBS-containing DMEM medium for a calcium-free colorless HESS medium (GIBCO). Subsequently, a calcium-containing colorless HESS medium (GIBCO) to which an oligosaccharide containing 1-kestose, sucrose, or nystose was added at a concentration of 1 wt. % was added to the upper layer. At the same time, Lucifer Yellow (MP Biomedical LLC.) was added to the upper layer at a concentration of […] as a substance passing between the cells. After culturing for three hours, the HBSS medium in the lower layer was collected, and the residual concentration of Lucifer Yellow that had permeated from the upper layer to the lower layer was measured (1% kestose group, 1% sucrose group, and 1% nystose group, n=3). As the control group, a group of cells cultured only in a calcium-free HBSS medium (negative control group, n=3) and a group in which culture was performed for two hours in a calcium-free HBSS medium, and then the medium was only exchanged for a calcium-containing HBSS medium (positive control group, n=3) were prepared, and the amounts of substances that passed between the cells were compared.

Caco-2 cells [3] = assay: Prior administration of 1-kestose, inhibition of TEER decrease caused by extracellular calcium deficiency (Example 4); details: for TEER right before exchanging the medium for calcium-free DMEM, versus negative and positive control groups: 1 wt. %; for decrease in TEER after exchange for calcium-free DMEM and elimination of 1-kestose, versus negative control group: 1 wt. % prior administration
Excerpt: as §1, §2
The Caco-2 cells were cultured until TEER of the Transwell reached 400 to 500 Ω·cm^2. The 10% FES-containing DMEM medium was exchanged for a […] DMEM medium, and an oligosaccharide containing 1-kestose was added at a concentration of 1 wt. % to the upper layer. The medium was exchanged for a calcium-free medium one hour or six hours later, and TEER was chronologically measured three times, every half hour (1-hour calcium (+) 1% kestose group, 6-hour calcium (+) 1% kestose group, n=3). As the control group, a group in which culture was performed for one hour or six hours in a calcium- containing DMEM medium, and then in a calcium-free DMEM medium (1-hour calcium (+) negative control group, 6-hour calcium (+) negative control group, n=3) and a group of cells that were cultured only in a calcium-containing DMEM medium (positive control group, n=3) were prepared, and chronological changes in TEER were compared.

Caco-2 cells [4] = assay: Recovery of TEER after decreased epithelial cell-cell adhesion caused by extracellular calcium deficiency (Examples 1-3); details: for recovery of TEER in comparison with the negative control group / recovery-promoting effect on TEER in comparison with the positive control group: Example 1, FIG. 1, 1 wt. % in calcium-containing DMEM after 2 h calcium-free DMEM, n=3
Excerpt: as §1, §2
The Caco-2 cells that were cultured until TEER of the Transwell reached 400 to 500 Ω·cm^2 were cultured for two hours after exchanging the 10% FES-containing DMEM medium for a calcium-free DMEM medium. Subsequently, a calcium-containing DMEM medium to which an oligosaccharide containing 1-kestose, or nystose, was added at a concentration of 1 wt. % was added to the upper layer. Then, TEER was chronologically measured every half hour, and the cells were cultured up to 22 hours and then TEER was measured (1% kestose group, 1% nystose group, n=3). As the control group, a group of cells that were cultured only in a calcium-free DMEM medium (negative control group, n=3) and a group in which culture was performed for two hours in a calcium-free DMEM medium, and then the medium was only exchanged for a calcium-containing DMEM medium (positive control group, n=3) were prepared, and chronological changes in TEER were compared.
The Caco-2 cells that were cultured until TEER of the Transwell reached 400 to 500 Ω·cm^2 were cultured for two hours after exchanging the 10% FBS-containing DMEM medium for a calcium-free DMEM medium. Subsequently, a calcium-containing DMEM medium to which an oligosaccharide containing 1-kestose was added at a concentration of 1 wt. % was added to the upper layer. Then, TEER was chronologically measured every half hour, and the cells were cultured up to three hours and then TEER was measured (calcium (+) 1% kestose group, n=3). Also, a group in which an oligosaccharide containing 1-kestose was added at a concentration of 1 wt. % to the calcium-free DMEM medium, while the medium was not exchanged for a calcium-containing DMEM medium, and cell culture was performed up to three hours and then TEER was measured was prepared (calcium (−) 1% kestose group, n=3). As the control group, a group of cells that were cultured only in a calcium-free DMEM medium (negative control group, n=3) and a group in which culture was performed for two hours in a calcium-free DMEM medium, and then the medium was only exchanged for a calcium-containing DMEM medium (positive control group, n=3) were prepared, and chronological changes in TEER were compared.
The Caco-2 cells that were cultured until TEER of the Transwell reached 400 to 500 Ω·cm^2 were cultured for two hours after exchanging the 10% FBS-containing DMEM medium for a calcium-free DMEM medium. Subsequently, a calcium-containing DMEM medium to which an oligosaccharide containing 1-kestose was added at a concentration of 1 wt. % or 0.1 wt. % was added to the upper layer. Then, TEER was chronologically measured every half hour, and the cells were cultured up to 3.5 hours and then TEER was measured (1% kestose group, 0.1% kestose group, n=3). […]

[5] = Example 4, FIG. 4, 1-hour calcium (+)
[6] = Example 4, FIG. 5, 6-hour calcium (+)

| SMILES | average TEER ratio (to the initial measured value of TEER) (Caco-2 cells [1]; Example 6, FIG. 7, 1 wt. % for 24 h, then IL-1β 10 ng/mL in lower layer, measured 48 h later, n=3) | inhibition of the decrease of TEER (Caco-2 cells [1]; Example 6, 1 wt. %, IL-1β 10 ng/mL, 48 h) | residual concentration of Lucifer Yellow in the lower layer compared to the negative control group (Caco-2 cells [2]) | residual concentration of Lucifer Yellow in the lower layer compared to the positive control group (Caco-2 cells [2]; 1 wt. %) | residual concentration of Lucifer Yellow in the lower layer, rank among all groups (Caco-2 cells [2]; 1 wt. %) | TEER right before exchanging the medium for calcium-free DMEM, versus negative and positive control groups (Caco-2 cells [3]; [5]) | decrease in TEER after exchange for calcium-free DMEM and elimination of 1-kestose, versus negative control group (Caco-2 cells [3]; [5]) | TEER right before exchanging the medium for calcium-free DMEM, versus negative and positive control groups (Caco-2 cells [3]; [6]) | decrease in TEER after exchange for calcium-free DMEM and elimination of 1-kestose, versus negative control group (Caco-2 cells [3]; [6]) | recovery of TEER in comparison with the negative control group (Caco-2 cells [4]) | recovery-promoting effect on TEER in comparison with the positive control group (Caco-2 cells [4]) | promotion of TEER recovery compared to the 1% nystose group (Caco-2 cells [4]; Example 1, 1 wt. %) | recovery-promoting effect relative to the positive control group, on average (Caco-2 cells [4]; Example 1, 1 wt. %, 30 minutes after exchanging calcium-free for calcium-containing DMEM) [times] | effect of promoting recovery of TEER in comparison with the positive control group (Caco-2 cells [4]; Example 2, FIG. 2, calcium (+), 1 wt. %) | recovery of TEER (Caco-2 cells [4]; Example 2, FIG. 2, calcium (+), 1 wt. % in calcium-containing DMEM, up to 3 h) | recovery of TEER (Caco-2 cells [4]; Example 2, FIG. 2, calcium (−), 1 wt. % in calcium-free DMEM, up to 3 h) | recovery of TEER (Caco-2 cells [4]; Example 3, FIG. 3, 0.1 wt. % in calcium-containing DMEM, up to 3.5 h) | promotion of recovery of TEER, 1% group versus 0.1% group (Caco-2 cells [4]; Example 3, FIG. 3, 1 wt. % compared with 0.1 wt. %) | recovery of TEER (Caco-2 cells [4]; Example 3, FIG. 3, 1 wt. % in calcium-containing DMEM, up to 3.5 h) |
| --- | --- | --- | --- | --- | --- | --- | --- | --- | --- | --- | --- | --- | --- | --- | --- | --- | --- | --- | --- |
| OC[C@H]1O[C@@](CO)(OC[C@@]2(O[C@H]3O[C@H](CO)[C@@H](O)[C@H](O)[C@H]3O)O[C@H](CO)[C@@H](O)[C@@H]2O)[C@@H](O)[C@@H]1O [1-kestose] | 0.849 | approximately 26% | significant reduction in the residual concentration | further reduced residual concentrations | lowest residual concentration | significant increase in TEER | tendency that a decrease in TEER in the 1-hour calcium (+) 1% kestose group was inhibited | significant increase in TEER | tendency that a decrease in TEER in the 6-hour calcium (+) 1% kestose group was inhibited | significant recovery of TEER | significant recovery-promoting effect | tendency of stronger promotion of recovery | 2.4 | significant effect of promoting recovery of TEER | significant recovery of TEER | Recovery of TEER was hardly observed | significant recovery of TEER | tendency of stronger promotion of recovery of TEER | significant recovery of TEER |
| OC[C@H]1O[C@@](CO)(OC[C@@]2(OC[C@@]3(O[C@H]4O[C@H](CO)[C@@H](O)[C@H](O)[C@H]4O)O[C@H](CO)[C@@H](O)[C@@H]3O)O[C@H](CO)[C@@H](O)[C@@H]2O)[C@@H](O)[C@@H]1O [nystose] | – | – | significant reduction in the residual concentration | further reduced residual concentrations | – | – | – | – | – | significant recovery of TEER | significant recovery-promoting effect | – | – | – | – | – | – | – | – |

Source: patent US20120315342A1, “EPITHELIAL CELL-CELL ADHESION ENHANCER, AND AMELIORATING, THERAPEUTIC OR PROPHYLACTIC AGENT FOR ALLERGIC DISEASES USING SAME” (Tokai Medical Test Laboratory Co., priority 2010, published 2012)
